# In paper PMC9487510, “A Novel Oral GyrB/ParE Dual Binding Inhibitor Effective against Multidrug-Resistant Neisseria gonorrhoeae and Other High-Threat Pathogens” (Antimicrobial Agents and Chemotherapy, 2022):
# Several values for one entry are separate records, joined by “and”; a condition that tells them apart may be missing. Equal values may be shown once. Read-outs that look alike come from different tables or passages of the source.
# Tests used:
# [1] = test system: E. coli; parameters: method as in PMID 28483959, PMID 31315953; details: cited from earlier work
# [2] = test system: S. aureus; details: organism not named in the sentence (context MRSA/S. aureus); cited from earlier work
# [3] = test system: N. gonorrhoeae; details: QC strain ATCC 49926; cited from earlier work
# [4] = Kinetic aqueous solubility; format: physicochemical
# [5] = test system: N. gonorrhoeae (ATCC 700825); experiment: Intravaginal infection model, ovariectomized BALB/c mice, strain ATCC 700825; format: in vivo, mouse (BALB/c); details: for killing effect relative to the baseline group: 26, 76 and 170 h after infection; for killing effect (bacterial counts in vaginal lavage): 26 h postinfection
# [6] = Mouse pharmacokinetics of JSF-2659; format: in vivo; details: oral administration in mice; data not shown
# [7] = test system: S. aureus VRSA, VRS-2; experiment: Neutropenic murine thigh infection model; format: in vivo, mouse (ICR); details: 26 h after infection
# [8] = Liver microsome stability, mouse; format: in vitro ADME; details: male, CD-1, mouse, liver microsomes, pH 7.4
# Experimental: Liver microsome stability assays were performed by BioDuro Inc. Human and mouse (CD-1 male) liver microsomes were used. […] Next, 50 μL of reaction buffer was added to solution and mixed via pipetting up and down 6 times. At each time point of 0, 30, and 60 min, an aliquot of 20 μL was removed from each tube. Liver microsomes (LM) working solution was prepared in 0.05 M phosphate reaction buffer (pH = 7.4) to a final concentration of 1.27 mg/mL. NADPH solution was prepared in 0.05 M phosphate buffer to afford a 5 mM buffer solution. […] After vortexing and incubating for 5 min (37°C), 50 μL of NADPH solution was added and mixed via pipetting. At each time point of 0, 5, 15, 30, and 60 min, an aliquot of 20 μL was removed from each tube. Next, 250 μL of quenching solution was aliquoted to quench the reaction, which was then vortexed for 1 min and placed on ice for 40 min. After centrifugation at 4,000 × g for 15 min, 100 μL of supernatant was transferred using a multichannel pipette to 0.65-mL tubes. Samples were diluted with MeOH: H2O (1:1) as necessary. Samples were analyzed by high-pressure liquid chromatography coupled to tandem mass spectrometry (LC/MS/MS) performed on a Sciex Applied Biosystems Qtrap 4000 triple-quadrupole mass spectrometer coupled to a Shimadzu HPLC system to quantify the remaining compound. Data were processed using Analyst software (version 1.4.2; Applied Biosystems Sciex). […] Metabolite identification on the microsomal extracts was performed using a Q-Exactive HRMS coupled with an Ultimate 3000 HPLC system and a Kinetix C18 2.1 × 50-mm 2.6-μm HPLC column.
# [9] = test system: Neisseria gonorrhoeae strain H041; experiment: Estradiol-treated mouse model of cervico-vaginal infection, strain H041; format: in vivo, mouse (BALB/c); details: for percentage of mice colonized over 8 culture days after treatment: vs vehicle
# [10] = test system: C. difficile BAA-1805; experiment: Hamster C. difficile colitis model; format: in vivo, Golden Syrian hamster
# [11] = test system: MRSA; experiment: MIC, in vitro susceptibility testing (CLSI); format: cell-based, Staphylococcus aureus
# [12] = test system: C. difficile; experiment: MIC, toxigenic C. difficile panel (CLSI); format: cell-based, Clostridioides difficile; details: for MIC: Clostridioides difficile
# [13] = test system: VISA; experiment: MIC, in vitro susceptibility testing (CLSI); format: cell-based, Staphylococcus aureus
# [14] = test system: VRSA; details: cited from earlier work
# [15] = test system: MRSE; experiment: MIC, in vitro susceptibility testing (CLSI); format: cell-based, Staphylococcus epidermidis
compound,measurement,setting,value
O=c1ccc2ncc(=O)n3c2n1C[C@H]3CN1CCC(NCc2cc3c(cn2)OCCC3)CC1 [Gepotidacin],MIC,[1],4 µg/mL
same,MIC90,[2],0.5 µg/mL
same,modal MIC,[3],0.5 µg/mL
CNc1cc(F)cc2c1[nH]c1nc(Oc3cnc(C)nc3)nc(N3CCC4(CC3)CO[C@@H](COP(=O)(O)O)C4)c12 [JSF-2659],increase of solubility over the parent drug candidate,[4]; JSF-2659 vs JSF-2414,764 fold
same,solubility kinetic,[4]; aqueous medium (not further specified),440 µM
same,killing effect relative to the baseline group,[5]; IM 75 mg/kg QD,> 3 log10
same,killing effect relative to the baseline group,[5]; IM 250 mg/kg QD,> 3 log10
same,killing effect relative to the baseline group,[5]; PO 75 mg/kg TID,> 3 log10
same,killing effect relative to the baseline group,[5]; PO 250 mg/kg QD,> 3 log10
same,killing effect relative to the baseline group,[5]; PO 250 mg/kg TID,> 3 log10
same,killing effect (bacterial counts in vaginal lavage),"[5]; IM 75 mg/kg QD, relative to control",3.51 log10
same,killing effect (bacterial counts in vaginal lavage),"[5]; IM 250 mg/kg QD, relative to control",3.39 log10
same,killing effect (bacterial counts in vaginal lavage),"[5]; PO 75 mg/kg QD, relative to baseline group",1 log10
same,killing effect (bacterial counts in vaginal lavage),"[5]; PO 75 mg/kg TID, relative to control",3.51 log10
same,killing effect (bacterial counts in vaginal lavage),"[5]; PO 250 mg/kg QD, relative to control",3.51 log10
same,killing effect (bacterial counts in vaginal lavage),"[5]; PO 250 mg/kg TID, relative to control",3.51 log10
same,reduction of burden to the limit of detection,[5]; dose-dependent oral administration,~ 4.5 log10
same,conversion by host phosphatases to JSF-2414,[6],> 99%
same,bacterial count reduction in thigh relative to vehicle control,[7]; PO 100 mg/kg QD,0.95 log10
same,bacterial count reduction in thigh relative to vehicle control,[7]; PO 100 mg/kg TID,4.84 log10
same,bacterial count reduction in thigh relative to vehicle control,[7]; PO 250 mg/kg QD,4.42 log10
same,bacterial count reduction in thigh relative to vehicle control,"[7]; PO 250 mg/kg TID, 250 mg/kg",6.26 log10 and > 6.2 log10
same,microsomal CLint at 1 μM,[8]; read-out: MLM Clint,0.5 µL/min/mg
same,half-life at 1 μM,[8]; read-out: MLM t1/2,23.1 h
same,percentage of mice colonized over 8 culture days after treatment,[9]; 75 mg/kg TID (q 6 h) PO,significant reduction in the percentage of mice colonized
same,percentage of mice colonized over 8 culture days after treatment,[9]; 250 mg/kg QD PO,significant reduction in the percentage of mice colonized
same,percentage of mice colonized over 8 culture days after treatment,[9]; 250 mg/kg TID (q 6 h) PO,significant reduction in the percentage of mice colonized
same,average CFU/mL recovered after 48 h of treatment,"[9]; 250 mg/kg TID PO, vs vehicle (P = 0.058)",significantly reduced compared to the vehicle control
same,average CFU per mL of vaginal swab suspension over time,"[9]; 250 mg/kg TID PO, P = 0.004",significantly different than the vehicle control group
same,"survival, 14-day observation",[10]; 20 mg/kg PO BID for 5 days,100%
same,"survival, 14-day observation",[10]; 100 mg/kg PO BID for 5 days,100%
same,"survival, 14-day observation",[10]; 250 mg/kg PO BID for 5 days,100%
same,body weight change during the 14-day observation period,"[10]; 20, 100 and 250 mg/kg PO BID, relative to the positive controls",No significant loss of body weight
"CN[C@H](CC(C)C)C(=O)N[C@H]1C(=O)N[C@@H](CC(N)=O)C(=O)N[C@H]2C(=O)N[C@H]3C(=O)N[C@H](C(=O)N[C@H](C(=O)O)c4cc(O)cc(O)c4-c4cc3ccc4O)[C@H](O)c3ccc(c(Cl)c3)Oc3cc2cc(c3O[C@@H]2O[C@H](CO)[C@@H](O)[C@H](O)[C@H]2O[C@H]2C[C@](C)(N)[C@H](O)[C@H](C)O2)Oc2ccc(cc2Cl)[C@H]1O [Van, vancomycin]",MIC,[11],1.0 µg/mL
same,MIC range,[11],0.5 to 1 µg/mL
same,MIC,"[11]; Staphylococcus aureus, MRSA",0.5 µg/mL
same,MIC range,[12],0.5 to 1 µg/mL
same,MIC,[12],1 µg/mL
same,MIC,[12]; BAA1805,0.5 µg/mL
same,MIC,[12]; BAA1808,0.5 µg/mL
same,MIC,[12]; BAA1874,0.5 µg/mL
same,MIC,[12]; BAA1875,0.5 µg/mL
same,MIC range,[13],3.125 to 12.5 µg/mL
same,bacterial count reduction in thigh,[7]; SC 100 mg/kg TID,2.09 log10
same,MIC,[14],> 64 µg/mL
same,survival,[10]; 20 mg/kg PO BID for 5 days,100%
same,MIC range,[15],0.5 to 1 µg/mL
same,MIC,"[15]; Staphylococcus epidermidis, MRSE",0.5 µg/mL
